How the values were obtained:
humane Spermien [1] = assay: Ca2+ imaging of head and midpiece of single human spermatozoa; type: cell-based
Description: Die Ca^2+-imaging-Experimente wurden auf dem Träger eines invertierten Zeiss-Mikroskopes durchgeführt, das für die ratiofluorometrische Bildgebung mit einer Xenon-Bogenlampe, einem Vielfach-Wellenlängen-Illuminations-System POLYCH-ROM II zur Anregung, einer gekühlten charge-coupled device (CCD)-Kamera und einer WinNT-basierten T.I.L.L.-Vision-Software zum Sammeln und raum- und zeitabhängigen Quantifizieren Ca^2+-abhängiger Fluoreszenz-Signale (F340/F380-Verhältnis) ausgestattet war. HEK293-Zellen wurden mit 32-facher, Spermazellen mit 63-facher Vergrößerung beobachtet.
HEK293- und Spermazellen wurden unter Verwendung eines speziellen Applikations-Systems, das es gestattete, vorübergehend alle Zellen im Blickfeld aus einem von sechs benutzergewählten Kapillarröhrchen zu überspülen, Geruchs- und/oder Wirkstoffen (Testlösungen) ausgesetzt. Der Wechsel zwischen den Testlösungen erfolgte nahezu sofort; auch trat im Wesentlichen keine Wirkungsverzögerung nach dem Wechsel auf, weil die Röhrchenspitzen zum optischen Feld eng benachbart waren. Zwischen den Applikationen von Testlösungen überspülte ein Pufferlösungsstrom kontinuierlich alle Zellen im Gefäß, um jedwede potentielle Hintergrund-Anreicherung von Testlösungen (Geruchs- bzw. Wirkstoffen) zu minimieren. Alle Lösungen wurden bei Raumtemperatur appliziert. Alle verwendeten Geruchsstoffe stammten von Dr. T. Gerke, Henkel KGaA, Düsseldorf, FRG, andere Wirkstoffe wurden von Sigma gekauft. Zur Zusammensetzung der Henkel 100-Mischung vergleiche C. H. Wetzel et al., Journal of Neuroscience 19, 7426-7433 (1999).
Die mögliche Rolle von hOR17-4 in einem Ca^2+-vermittelten physiologischen Prozess in humanen Spermatozoen (z.B. Acrosomreaktion, Kapazitationsprozess oder Änderungen zur hyperaktivierten Beweglichkeit) wurden durch Ca^2+-Imaging der Kopf- und der Mittelregion von einzelnen humanen Spermien untersucht. Dazu wurden frisch von jungen, gesunden Spendern erhaltene humane Spermien unverzüglich in 1,5-ml Plastikröhrchen transferiert. Nach 30 minütiger aufrechter Inkubation bei 37 °C wurden 75 µl beweglicher Spermien aus der oberen Schicht der Spermiensuspension auf Concanavalin A-beschichtete 35 mm Petrischalen transferiert und 45 Minuten lang bei Raumtemperatur in 1 ml Ladungspuffer (pH 7,4) mit 140 mM NaCl, 5 mM KCI, 2 mM CaCl2, 2 mM MgCl2, 10 mM Hepes, 10 mM Glucose, 5 µM Fura-2-AM (Molecular Probes), and 0,1 % Pluronic F-127 inkubiert. Danach wurde das Medium sanft durch Fura-2-AM-freie Pufferlösung ausgewechselt. Nicht an den Boden angeheftetes Sperma wurde durch diesen Schritt entfernt. Ca^2+-Bilder wurden von 8 bis 15 Spermatozoen in einem zufällig gewählten Sichtfeld aufgenommen. Die Fluoreszenzsignale eines Spermienkopfes und der Mittelregion wurden gemessen. […]

humane Spermien [2] = assay: Sperm chemotaxis flat capillary assay (cell density in capillary); type: cell-based, human
Method: Gefrorene Samenproben von fünf gesunden Spendern wurden aus der California Cryobank (Los Angeles, CA, USA) erhalten und für Bioassays gemäß den World Health Organization-Richtlinien (World Health Organization: Laboratory for the examination of human serum and semen-cervical mucus interaction, Cambridge University Press (1993)) vorbereitet. Nachdem die Suspensionen auf 37 °C für 10 Minuten gebracht worden waren, wurde jede Probe in HEPES-gepufferter humaner Tubarflüssigkeit (HTF; Irvine Scientific, Santa Ana, CA, USA) überführt und auf 10^7 Zellen/ml eingestellt. Die Lösungen wurden dann bei 37 °C in einer 5 %-igen CO2-Atmosphäre aufbewahrt und innerhalb von 30 Minuten für Experimente verwendet (P. Quinn, Journal of Assisted Reproductive Genetics 12, 97-105 (1995)). Die Reaktionen von Sperma auf Bourgeonal wurde (a) durch computer-assisted video motion analysis (CAVMA) gemessen, um Veränderungen in der Schwimmgeschwindigkeit (Spermaaktivierung) zu detektieren, und (b) in einem flat capillary-Assay für die Chemotaxis in der Nähe einer Diffusionsmaterialquelle untersucht. Für jede Test-oder Kontroll-Behandlung wurden fünf wiederholte Experimente unter Verwendung von Sperma der fünf Spender durchgeführt. Die Daten der Bioassays wurden statistisch durch Ein-Weg-Varianzanalyse (ANOVA) unter Verwendung eines post-hoc Scheffe-Tests (R. W. Day and G. P. Quinn, Ecol. Monogr. 59, 433-463 (1989)) analysiert. Eine Bonferroni-Korrektur wurde zum Angleichen der α-Levels für multiple Vergleiche verwendet.
Zur Untersuchung der Spermien-Chemotaxis wurden Kammern mit vier getrennten Kompartimenten verwendet, wobei die Kapillar-Methode von Adler (J. Adler, Science 153, 708-716 (1966); J. Adler, Journal of General Microbiology 74, 77-91 (1973)) modifiziert wurde. Jedes Kompartiment bestand aus zwei durch einen Kanal verbundenen Vertiefungen. Die Spermienproben (10^6 Zellen/ml) wurden jeweils in den Vertiefungen vorgelegt. Ein flaches 6 µl-Mikrokapillarröhrchen (Drummond Scientific Co.), das entweder Test- oder Kontrolllösung enthielt, wurde in den Kanal eingeführt, wobei seine beiden Enden die frischen Spermien-Suspensionen innerhalb der zwei Vertiefungen berührten. Nach vier Stunden Inkubation bei 37 °C wurden die Inhalte jeder Kapillare in die Vertiefung eines Toxoplasmose-Objektträgers transferiert, hitzefixiert und mit 0,1 Acridin-Orange 1 Minute lang gefärbt. Zellzählungen wurden dann unter Verwendung eines Olympus-BH2-Mikroskopes, das für Phasenkontrast- und Epifluoreszenz-Applikationen ausgerüstet war (J. A. Riffell, P. J. Krug, R. K. Zimmer, Journal of Experimental Biology 205, 1439-1450 (2002); C. C. Gee and R. K. Zimmer-Faust, Journal of Experimental Biology 200, 3185-3192 (1997)), bei 67-facher Vergrößerung durchgeführt.
Zur Bestimmung der Chemoattraktion von Spermien und des Effekts eines Antagonisten wurde Bourgeonal allein bei 10^-7 M und in Kombination mit 10^-6, 10^-7, 10^-8 oder 10^-9 M n-Undecanal getestet. Während der Durchführung der Chemotaxis-Bioassays wurde das Spermienverhalten innerhalb eines Bereiches von 300 µm vor jeder Kapillarspitze 30 Sekunden lang auf Video aufgenommen. Die Videoaufnahme begann 10 bis 15 Minuten nach dem Experimentbeginn, um die Bildung eines chemischen Gradienten zu ermöglichen. Die Spermien-Orientierung zum Gradienten hin wurde unter Verwendung von CAVMA quantifiziert. […]

humane Spermien [3] = assay: Sperm orientation towards capillary tip (CAVMA, circular statistics, Rayleigh test); type: cell-based, human; conditions: Bourgeonal 10^-8 M and higher
Description: Zur Bestimmung der Chemoattraktion von Spermien und des Effekts eines Antagonisten wurde Bourgeonal allein bei 10^-7 M und in Kombination mit 10^-6, 10^-7, 10^-8 oder 10^-9 M n-Undecanal getestet. Während der Durchführung der Chemotaxis-Bioassays wurde das Spermienverhalten innerhalb eines Bereiches von 300 µm vor jeder Kapillarspitze 30 Sekunden lang auf Video aufgenommen. Die Videoaufnahme begann 10 bis 15 Minuten nach dem Experimentbeginn, um die Bildung eines chemischen Gradienten zu ermöglichen. Die Spermien-Orientierung zum Gradienten hin wurde unter Verwendung von CAVMA quantifiziert. Durch Anwendung zirkulärer Statistiken wurde die mittlere Vektorlänge (r) und die Schwimmrichtung berechnet, um das Bewegungsmuster der untersuchten Spermien zu beschreiben. Der Winkel der Spermienorientierung wurde in Bezug auf einen Ursprung angegeben, der als die kürzeste Verbindung zwischen jeder individuellen Zelle und der Kapillarenspitze (0°) definiert wurde. Um zu bestimmen, ob die Zellbewegung innerhalb des chemischen Gradienten nicht-zufällig war, wurde jede mittlere Ausrichtung mit einer uniformen zirkulären Verteilung unter Verwendung eines unimodalen Rayleigh-Tests (J. H. Zar, Biostatistical Analysis (1984)) verglichen.

## CC(C)(C)c1ccc(CCC=O)cc1 [Bourgeonal]
Humane Spermien [1]; 5 s application, 43 of 119 spermatozoa, 12 experiments
  vorübergehende Ca^2+-Antworten, Anteil aller getesteten Spermatozoen: 36%
Humane Spermien [1]; about two orders of magnitude lower than for recombinant receptor
  Schwellenwert (Konzentration für Ca^2+-Antwort): ≥ 10^-8 M
Humane Spermien [1]; direct comparison in the same sperm
  Effizienz (Reihenfolge der Agonisten) in Spermien: potentesten getesteten Liganden
Humane Spermien [2]
  Konzentration ohne weiteren Anstieg der Zelldichte: > 10^-6 M
Humane Spermien [2]; Homo sapiens, Sperm, 4 h, 37 °C, read-out: ED50 (Konzentration, die die halbmaximale Antwort hervorruft), Zelldichte
  EC50: 30 nM
Humane Spermien [2]; Scheffé test P ≤ 0,03
  Konzentrationen mit signifikanten Antworten im Verhältnis zur HTF-Kontrolle, Zelldichte: ≥ 10^-8 M
Humane Spermien [3]
  Zellbewegungsmuster in der Nähe der Kapillarspitzen: signifikant nicht-zufällig
Humane Spermien [3]; all comparisons
  mittlere Vektorlänge (r), Rayleigh-Test: ≥ 0,45

## CCCCCCCCCCC=O [n-Undecanal]
Humane Spermien [1]; co-application at same concentration as Bourgeonal, with or without pre-incubation, n = 10
  Blockade der Ca^2+-Antworten auf Bourgeonal: blockierte vollständig
Humane Spermien [2]; 10^-7 M alone, P > 0,99
  Effekt auf das Spermienverhalten, Zelldichte: keinen messbaren Effekt
Humane Spermien [2]; co-applied with 10^-6, 10^-7 or 10^-8 M n-Undecanal, P > 0,99
  Zelldichte als Antwort auf 10^-7 M Bourgeonal relativ zur HTF-Kontrolle: nicht signifikant erhöht

Reference: patent EP1551873B1, “AGONISTS AND ANTAGONISTS OF THE HUMAN ODORANT RECEPTOR OR17-4 AND USES THEREOF” (Symrise AG, priority 2002, dated 2004)
